The values that follow come from patent US12617773B2, “Azetidin-3-ylmethanol derivatives as CCR6 receptor modulators” (Idorsia Pharmaceuticals Ltd, priority 2020, dated 2026).

The first assay addresses T1, human CCR6 (Homo sapiens, UniProt P51684).
T1 construct: expressed in transfected cells; host or cells: HEK-293
T1 sequence (P51684 1-374): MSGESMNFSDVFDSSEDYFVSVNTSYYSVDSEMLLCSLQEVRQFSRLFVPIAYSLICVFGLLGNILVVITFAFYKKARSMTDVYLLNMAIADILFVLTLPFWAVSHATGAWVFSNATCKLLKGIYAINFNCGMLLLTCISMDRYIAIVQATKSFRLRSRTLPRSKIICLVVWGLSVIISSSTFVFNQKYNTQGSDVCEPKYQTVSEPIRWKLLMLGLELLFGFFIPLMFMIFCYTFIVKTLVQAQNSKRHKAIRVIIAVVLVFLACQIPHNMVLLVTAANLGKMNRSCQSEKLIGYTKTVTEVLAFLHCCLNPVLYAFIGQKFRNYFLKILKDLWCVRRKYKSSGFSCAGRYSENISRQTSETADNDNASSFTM
The assay can be described thus: FLIPR assay (inhibition of CCL20-induced calcium signal). Type of assay: cell-based. To be noted: FLIPR IC50 (nM), HEK-293 cells expressing human CCR6; mean values where determined several times. Put shortly: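 Dye-loaded HEK-293 cells expressing human CCR6 were preincubated with compound for 30 min at room temperature in the dark, then challenged with 10 nM CCL20 (final). Fluorescence was tracked on FLIPR, and baseline-subtracted peak emission over base after agonist addition gave inhibition dose-response curves for IC50.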
With `CN1CC(C)(C(O)(c2ccc(C(C)(C)C)cc2)c2cncc(N3CCCC3)c2)C1` (centres unmarked) [Example 157], the IC50 was 27.7 nM.

Still in this assay, the particulars now being: HEK-293 cells expressing human CCR6; mean values where determined several times; read-out: FLIPR IC50.
On to `Cc1nn(C)cc1C(O)C#Cc1cncc([C@@](O)(c2ccc(C(C)C)cc2)C2(C)CN(C)C2)c1` (some centres unmarked) [Example 29], for which the IC50 was 85.5 nM.
Same read-out and setting: with `CC(=O)N1CCC(c2cnc(-c3cncc([C@@](O)(c4ccc(C(C)C)cc4)C4(C)CN(C)C4)c3)nc2)CC1` [Example 685, 1-[4-(2-{5-[(R)-(1,3-Dimethyl-azetidin-3-yl)-hydroxy-(4-isopropyl-phenyl)-methyl]-pyridin-3-yl}-pyrimidin-5-yl)-piperidin-1-yl]-ethanone] the figure was 242 nM; with `CCCN1CC(C)([C@](O)(c2ccc(OC(F)(F)F)cc2)c2cncc(N3CCCC3)c2)C1` [Example 4], 36.2 nM.
Same read-out and setting: the result for `CC(C)c1ccc(C(O)(c2cnc(N3CCCC3)nc2)C2(C)CN(C)C2)cc1` (centres unmarked) [Example 330, (1,3-Dimethyl-azetidin-3-yl)-(4-isopropyl-phenyl)-(2-pyrrolidin-1-yl-pyrimidin-5-yl)-methanol] reads 143 nM; that for `[2H]C([2H])([2H])C(=O)N1CC(C)(c2nc(-c3cncc([C@@](O)(c4ccc(C(C)C)cc4)C4(C)CN(C)C4)c3)no2)C1` [Example 344], 441 nM.
With `COCCS(=O)(=O)N1CCC(c2nc(-c3cncc([C@@](O)(c4ccc(C(C)C)cc4)C4(C)CN(C)C4)c3)no2)CC1` [Example 384], the half-inhibitory concentration (IC50) worked out at 42.1 nM.
On to `CC(C)c1ccc([C@](O)(c2cnnc(CCC(C)(O)c3ccccc3)c2)C2(C)CN(C)C2)cc1` (stereo partly drawn) [Example 429, 4-{5-[(R)-(1,3-Dimethyl-azetidin-3-yl)-hydroxy-(4-isopropyl-phenyl)-methyl]-pyridazin-3-yl}-2-phenyl-butan-2-ol], for which the IC50 is 103 nM.
In the case of `CC(C)c1ccc([C@](O)(c2cncc(N3CC(Cc4ccccc4)OC3=O)c2)C2(C)CN(C)C2)cc1` (some centres unmarked) [Example 195], the IC50 turned out to be 29.3 nM.
On the same count and under the same terms, with `CC(C)c1ccc([C@](O)(c2cncc(CCC(O)(c3ccccn3)C3CC3)c2)C2(C)CN(C)C2)cc1` (some centres unmarked) [Example 416] the figure was 14.7 nM; with `CC(C)c1ccc([C@](O)(c2cncc(N3CC(c4ccccc4)CC3=O)c2)C2(C)CN(C)C2)cc1` (some centres unmarked) [Example 205], 26.9 nM.
With `CC(C)c1ccc([C@](O)(c2cnnc(N3CC(C(F)(F)F)CC3=O)c2)C2(C)CN(C)C2)cc1` (some centres unmarked) [Example 437], the half-maximal inhibitory concentration (IC50) was 95.2 nM.
Still for that read-out and setting: with `[2H]C([2H])([2H])C(=O)NCc1nc(-c2cncc([C@@](O)(c3ccc(C(C)C)cc3)C3(C)CN(C)C3)c2)no1` [Example 336] the figure was 207 nM; with `CC(C)c1ccc([C@](O)(c2cncc(C#CC(C)(O)c3nccn3C)c2)C2(C)CN(C)C2)cc1` (some centres unmarked) [Example 649], 185 nM.
For `[2H]C([2H])([2H])C(=O)NC(C)(C)Cc1nc(-c2cncc([C@@](O)(c3ccc(C(C)C)cc3)C3(C)CN(C)C3)c2)no1` [Example 141], the half-inhibitory concentration (IC50) stood at 211 nM.
Same read-out and setting: the result for `CC(C)c1ccc([C@](O)(c2cncc(-c3noc(C4CCN(S(=O)(=O)CCO)CC4)n3)c2)C2(C)CN(C)C2)cc1` [Example 385] reads 117 nM; that for `CN1CC(C)([C@](O)(c2ccc(C(C)(C)C(F)(F)F)cc2)c2cncc(-c3noc(C(C)(C)O)n3)c2)C1` [Example 535], 331 nM.
Same read-out and setting: the result for `CN1CC(C)([C@](O)(c2ccc(C3CC3)cc2)c2cncc(N3CCCC3)c2)C1` [Example 310] reads 48.6 nM.
Consider `CC(C)c1ccc([C@](O)(c2cncc(C#CC3CCOCC3)c2)C2(C)CN(C)C2)cc1` [Example 30], for which the IC50 is 33.9 nM.
On the same count and under the same terms, the result for `CC(C)Oc1cncc([C@@](O)(c2ccc(C(C)C)cc2)C2(C)CN(C)C2)c1` [Example 250] reads 10.9 nM; that for `CC(C)c1ccc([C@](O)(c2cncc(CCC3(O)CCCc4cccnc43)c2)C2(C)CN(C)C2)cc1` (some centres unmarked) [Example 77], 52.1 nM.
Same read-out and setting: the result for `CC(C)c1ccc([C@](O)(c2cncc(-c3nc(COC4CCOCC4)no3)c2)C2(C)CN(C)C2)cc1` [Example 93] reads 86.8 nM; that for `CC(C)c1ccc([C@](O)(c2cncc(N3CC4(CC5(CCC5)C4)OC3=O)c2)C2(C)CN(C)C2)cc1` [Example 202], 29.9 nM.
Still for that read-out and setting: the result for `CC(C)c1ccc([C@](O)(c2cncc(CCC(C)(C)N3CCOC3=O)c2)C2(C)CN(C)C2)cc1` [Example 638] reads 509 nM; that for `CC(=O)N1CCC(C#Cc2cncc([C@@](O)(c3ccc(C(C)C)cc3)C3(C)CN(C)C3)c2)CC1` [Example 586], 67 nM.
Take `CC(C)c1ccc([C@](O)(c2cncc(-c3nc(CO)no3)c2)C2(C)CN(C)C2)cc1` [Example 521]: the concentration for half-maximal inhibition (IC50) is 153 nM.
As for `CC(C)c1ccc([C@](O)(c2cncc(-c3noc(C4CCN(C(=O)C5CC5)CC4)n3)c2)C2(C)CN(C)C2)cc1` [Example 374], the half-inhibitory concentration (IC50) is 39 nM.
Still for that read-out and setting: with `CC(C)c1ccc([C@](O)(c2cncc(OC3CCC(C)(O)CC3)c2)C2(C)CN(C)C2)cc1` (stereo partly drawn) [Example 262, 4-{5-[(R)-(1,3-Dimethyl-azetidin-3-yl)-hydroxy-(4-isopropyl-phenyl)-methyl]-pyridin-3-yloxy}-1-methyl-cyclohexanol] the figure was 72.6 nM; with `CN1CC(C)(C(O)(c2ccc(OC(F)(F)F)cc2)c2cnc(F)c(N3CCCC3)c2)C1` (centres unmarked) [Example 266, (1,3-Dimethyl-azetidin-3-yl)-(6-fluoro-5-pyrrolidin-1-yl-pyridin-3-yl)-(4-trifluoromethoxy-phenyl)-methanol], 79.1 nM.

A word on the IC50: it is the concentration that gives 50% inhibition.
